Measurements taken from patent US20220273588A1, “MONOAMINE OXIDASE B INHIBITORS FOR USE IN THE PREVENTION OR TREATMENT OF PROSTATE CARCINOMA” (TOXIE EUROPE INTELLIGENS KÉMIAI SZENZOROKAT KUTATÓ, …, priority 2019, published 2022).

Experiments:
[1] = tested on: PC3 cells; test: CellTiter-Glo (ATP level) viability assay on PC3 cells; assay type: cell-based, human; settings: 48 h; for viability of PC3 cells: CellTiter-Glo; for viability of PC3 cells, summary of the study: concentration-dependent manner
Protocol: (§1) RPMI-1640 (Lonza) medium with 10% heat-inactivated FBS (fetal bovine serum, Sigma) and 100 U/ml Penicillin/Streptomycin was used to grow the cells. Cells were treated with drugs freshly dissolved in RPMI medium. Treatment concentrations were determined by widening the concentration range. After 48 h of treatment, cell viability was also quantified using the MTS reduction assay (Promega) as well as a CellTiter-Glo kit (Promega) based on ATP level measurements.
(§2) The CellTiter-Glo assay based on ATP level measurements was performed according to the manufacturer's protocol of pipetting 100 microliters of Celliter-Glo reagent into wells containing 100 microliters of medium, then shaking for 2 minutes and incubating for another 10 minutes. The luminescence signal was then detected with a PerkinElmer AlphaLisa instrument.
To support the applicability of the CellTiter-Glo viability assay method, we validated the method on a PC3 cell line. In this procedure, the measurement was performed with a given number of living cells per well, and the relative luminescence values obtained were plotted as a function of the cell number. A calibration line was placed on the data points by linear regression analysis, and based on the R2 value, it was determined that the relative luminescence value obtained during the measurement was directly proportional to the number of living cells (FIG. 1/C).
(§3) In our experiments, we performed three parallel experiments, and the experiments were repeated to increase the number of items. For the statistical analysis of two separate experiments the results were pooled, however, the absolute values obtained during the luminescence measurements cannot be used to combine the results. This is because the CellTiter-Glo reagent loses its activity during storage and possible thaw-freeze cycles. Thus, a CellTiter-Glo reagent from a single source can give different relative luminescence values (RLUs) at the same cell number in two different experiments performed at different times. However, in one experiment, the RLU reliably gives the cell number, and accordingly, the percentage viability value of the treated condition relative to the control RLU can be determined with certainty; values from different experimental series can be combined.
(§4) During the evaluation, we normalized to the mean of the control of the given experiment, so the mean of the control was 100% and the percentage of each individual data point relative to the mean of the control was calculated accordingly. One-way ANOVA with Bonferroni post hoc test with p<0.05 significance level was used for statistical validation of viability changes as described above.

[2] = tested on: human PC3 xenograft; test: Tumor growth in NSG SCID mouse human PC3 xenograft model; assay type: in vivo; settings: 10 mg/kg i.p. once daily from day 14, day 21
Excerpt: For our experiments, we used 25 3-month-old male NOD (Non Obese Diabetic) SCID (Severe Combined ImmunoDeficiency) Gamma mice (National Institute of Oncology Animal House). Immunodeficiency in these mice (Shultz et al, 1995) is associated with decreased T and B lymphocyte and NK cell function, as well as deficiency is developed in cytokine signaling pathways, in adaptive and innate immune systems. During the experiment, the animals were housed in the animal house of the János Szentágothai Research Center of the University of Pecs, and they were provided with standard rodent food and tap water ad libitum. The animals were kept at 20-24° C., 50-60% relative humidity, in a 12-12 hour dark-light cycle. […]
RPMI-1640 (Lonza) medium with 10% heat-inactivated FBS (Sigma) and 100 U/ml Penicillin/Streptomycin was used to proliferate the PC3 cell line (Wesel, Germany), which was also used for in vitro experiments. […] Cell counts were determined after trypan blue staining with a LUNA II automated cell counter (Logos Biosystems) and 50 million cells were resuspended in 5 ml PBS. […]
On days 4, 7, 11, 14, 18, and 21 of the experiment, the length (a) and width (b) of the growing tumor were measured with a caliper, and then the tumor volume was calculated using the following formula (J B Wu et al., J Clin Invest., 124, 2891-2908): […]

[3] = tested on: LNCaP cells; test: CellTiter-Glo (ATP level) viability assay on LNCaP cells; assay type: cell-based, human; settings: for viability of LNCaP cells: 48 hours of treatment; for viability of LNCaP cells, summary of the study: concentration-dependent manner, 48 h
Protocol: as §1, §2
To reproduce the literature data, we also used the unpaired t-test also used by Gordon et al (2014) to compare control and treated groups. […] For some results (LNCaP chlororlin MTS method and LNCaP rasagiline and selegiline CellTiter-Glo method) Kruskal-Wallis non-parametric one-way ANOVA method was used with Dunn test, while in other cases one-way ANOVA method was used with Bonferroni post hoc test.
as §3, §4

[4] = tested on: PC3 prostate carcinoma cell line; test: CellTiter-Glo viability assay on PC3 cells, selegiline, docetaxel and combinations; assay type: cell-based, human; settings: 48 hours
Protocol: In our studies, we used a […] PC3 prostate carcinoma cell line. The culture of the cell line and the study of the effect of the combination of docetaxel and selegiline were performed as previously described, with the changes detailed below.
Selegiline, docetaxel, and selegiline+docetaxel combination studies were performed in parallel, simultaneously, with the same reagents, on a cell population from the same cell culture. For the selegiline, docetaxel and selegiline+docetaxel combination studies, the following changes were applied from the protocol according to the examples of the application: • Treatments with selegiline alone were performed at concentrations ranging from 250 μM to 1 mM (250 μM, 500 μM, 750 μM, 1 mM), while docetaxel alone was administered at a concentration of 1 μM. For combination treatments, 1 μM docetaxel was added to the concentrations corresponding to the selegiline treatments (250 μM selegiline+1 μM docetaxel, 500 μM selegiline+1 μM docetaxel, 750 μM selegiline+1 μM docetaxel, 1 mM selegiline+1 μM docetaxel). • For docetaxel and combination treatments, a 0.01% dimethyl sulfoxide (DMSO) solution prepared with complete RPMI medium (10% FBS, 100 U/ml Penicillin/Streptomycin; solution for culturing and treating PC3 cells) was used as a control. This was used as a solvent control, corresponding to the use of DMSO to prepare a 10 mM docetaxel stock solution. Thus, the 1 μM docetaxel treatments we used also contained 0.01% DMSO. • The change in cell viability induced by selegiline, docetaxel, and combinations thereof was measured after 48 hours with the CellTiter-Glo kit as previously described. • The experiments were performed in 3 different series, and for evaluation they were combined with the previously described normalization. Briefly, during the evaluation, we normalized to the mean of the untreated control in the given experiment, so the mean of the control was 100% and the percentage of each individual data point relative to the mean of the control was calculated accordingly. Because treatments with selegiline and docetaxel alone or in combination were performed in one experiment, we normalized to the mean of the untreated control without DMSO. […] A Shapiro-Wilk and Kolmogorov-Smirnov normality test was performed on the data set, followed by a one-way ANOVA test with a Holm-Sidak's multiple comparison test.

[5] = tested on: metastatic castration-resistant disease; settings: patients; cited from earlier work
[6] = tested on: androgen-sensitive and castration-resistant human prostate cells; settings: literature preclinical study; cited from earlier work
[7] = tested on: LNCaP cells; test: MTS reduction viability assay on LNCaP cells; assay type: cell-based, human; settings: MTS method
Protocol: as §1
In the MTS reduction method (CellTiter 96® AQueous One Solution Cell Proliferation Assay, Promega Corp, Madison, […].), 20 microliters of MTS reagent was used per sample according to the manufacturer's protocol, and after 120 minutes of incubation, absorbance was measured at 492 nm with a microplate reader.
In the studies, we modified the protocol of Gordon et al (2014) as follows: • A volume of 20 microliters per well was used from the MTS reagent as recommended by the manufacturer (10 microliters were used by Grodon et al.). • In our case, an incubation time of 120 min was used to increase accuracy (Gordon et al incubated for 60 min). […] During validation, measurements were performed with a given number of cells per well, and absorbance values were plotted as a function of cell number. A calibration line was placed on the data points by linear regression analysis and the R^2 coefficient of determination was determined. […]

| SMILES | viability of PC3 cells ([1]; 1 mM) | viability of PC3 cells ([1]; 10 mM) | viability of PC3 cells, summary of the study [1] | rate of tumor growth compared to the group treated with physiological saline [2] | viability of LNCaP cells ([3]; 1 mM, CellTiter-Glo) | viability of LNCaP cells ([3]; 10 mM, CellTiter-Glo) | viability of LNCaP cells, summary of the study [3] | growth and proliferation of androgen-sensitive and castration-resistant human prostate cells [6] | further results |
| --- | --- | --- | --- | --- | --- | --- | --- | --- | --- |
| C#CCN(C)[C@H](C)Cc1ccccc1 [selegiline] | significant viability-reducing effect | significant viability-reducing effect | significantly reduced | significantly reduced | trend is also clearly observed | significant viability-reducing effect | significantly reduced |  | viability of PC3 cells, concentration dependence ([4]; 250 μM to 1 mM): concentration-dependent manner; viability of PC3 cells ([4]; 750 μM, Example 3 series): significant decrease in viability; viability of PC3 cells, effect of Example 1 ([4]; 1 mM, Example 3 series): reproduced |
| CC(=O)O[C@@]12CO[C@@H]1C[C@H](O)[C@@]1(C)C(=O)[C@H](O)C3=C(C)[C@@H](OC(=O)[C@H](O)[C@@H](NC(=O)OC(C)(C)C)c4ccccc4)C[C@@](O)([C@@H](OC(=O)c4ccccc4)[C@H]21)C3(C)C [docetaxel] |  |  |  |  |  |  |  |  | increase of overall survival, average [5]: 2-3 months; cell viability compared to the DMSO control ([4]; 1 μM): significantly reduced cell viability |
| NNCCc1ccccc1 [phenelzine] |  |  |  |  |  |  |  | inhibited |  |
| C#CCN[C@@H]1CCc2ccccc21 [rasagiline] | significant viability-reducing effect | significant viability-reducing effect | significantly reduced |  | trend is also clearly observed | significant viability-reducing effect | significantly reduced |  |  |
| C#CCN(C)CCCOc1ccc(Cl)cc1Cl [clorgylin] | significantly reduced |  | significantly reduced | significantly reduced |  |  | significantly reduced | inhibited | viability of LNCaP cells ([7]; 100 micromolar, 48 h of treatment): significantly reduced; viability of LNCaP cells, concentration dependence ([7]; 48 h): concentration-dependent manner; viability of PC3 cells ([1]; 100 micromolar): significantly reduced; viability of LNCaP cells, CellTiter-Glo compared with MTS method ([3]; 48 h clorgylin treatment, CellTiter-Glo): results similar to the MTS method; growth of enzalutamide-resistant cells [6]: significantly reduced |
